Measurements as given in patent publication US9757378B2, “Methods to modulate acute myeloid leukemia stem/progenitor cell expansion and/or differentiation” (UNIVERSITE DE MONTREAL, priority 2013, dated 2017).

Tested on: primary human AML cells
Experiment: Primary screen: differentiation of primary human AML cells in vitro (CD34/CD15, HTS flow cytometry)
Conditions: for % increase CD34+ (%) / % increase CD34+ (cell counts) / % increase CD34+CD15− (cell counts): compared to DMSO; for % increase CD34+CD15− (%): compared to DMSO ((compound − DMSO)/DMSO*100); for percent gated cells (viability): 2 μM (commercial libraries) or 1 μg/ml (IRIC); for CD34+CD15− cell counts compared to DMSO: in words
Procedure: AML cells were thawed in 37° C. water bath and 1:10 diluted in prewarmed Iscove's modified Dulbecco's medium (IMDM) containing 20% FBS and DNase 100 μg/ml. […] When compounds were added to the culture medium, final DMSO concentrations were 0.1% in all in vitro experiments and 0.01% when cultured cells were transplanted into NSG-mice.
Compounds were tested at 2 μM (commercial libraries) or 1 μg/ml (Medicinal Chemistry Facility, IRIC). […] For validation experiments AML cells were grown in 384-well plates with 3-8 replicates per condition.
Flow cytometry was performed on an LSR™ II cytometer equipped with an HTS-device (BD Bioscience, Primary and Secondary screens and in vitro validation experiments) or on a BD Canto™ II cytometer (BD Bioscience, Xenotransplantation and CellTrace Violet™ experiments). Cells were stained for 30 minutes at 4° C. protected from light if not otherwise indicated (CellTrace Violet™ staining). […] CD34 intensities in flow cytometry plots were set at high levels on day 0 to allow tracing of non-predictable decreases of intensities during 7 days in culture.

## O=c1cc(-c2ccc(O)cc2)oc2cc(O)cc(O)c12 [UM0118614, Apigenin]
  % increase CD34+ (%): 20.12%
  % increase CD34+ (cell counts): 22.02%
  % increase CD34+CD15− (cell counts): 66.30%
  % increase CD34+CD15− (%): 63.93%

## O.O.O=c1c(O)c(-c2ccc(O)c(O)c2)oc2cc(O)cc(O)c12 [UM0118473, Quercetine dihydrate]
  % increase CD34+ (%): 15.71%
  % increase CD34+ (cell counts): 6.69%
  % increase CD34+CD15− (cell counts): 69.64%
  % increase CD34+CD15− (%): 83.29%

## COc1ccc(-c2cc(=O)c3ccccc3o2)cc1 [UM0070201, 4′-Methoxyflavone]
  percent gated cells (viability): 78.10%
  % increase CD34+ (%): 28.71%
  % increase CD34+ (cell counts): 20.27%
  % increase CD34+CD15− (cell counts): 58.22%
  % increase CD34+CD15− (%): 69.03%

## CC[C@H](C)C(=O)O[C@H]1C[C@@H](C)C=C2C=C[C@H](C)[C@H](CC[C@@H]3C[C@@H](O)CC(=O)O3)[C@H]21 [UM0118699, Lovastatin]
  percent gated cells (viability): 81.00%
  % increase CD34+ (%): 1.88%
  % increase CD34+ (cell counts): −14.30%
  % increase CD34+CD15− (cell counts): 36.94%
  % increase CD34+CD15− (%): 62.41%

## CC(=O)c1ccc2c(c1)N(CCCN(C)C)c1ccccc1S2.O=C(O)/C=C\C(=O)O [UM0118758, Acetopromazine maleate salt]
  % increase CD34+ (%): −0.82%
  % increase CD34+ (cell counts): −11.68%
  % increase CD34+CD15− (cell counts): 41.15%
  % increase CD34+CD15− (%): 57.85%

## COC(=O)/C(C)=C\CC12OC(C)(C)C3CC(C=C4C(=O)c5c(OC)c6c(c(CC=C(C)C)c5OC431)OC(C)(CCC=C(C)C)C=C6)C2=O (stereo not drawn) [UM0120889, Dimethyl gambogate]
  % increase CD34+ (%): 47.72%
  % increase CD34+ (cell counts): −50.44%
  % increase CD34+CD15− (cell counts): −48.79%
  % increase CD34+CD15− (%): 52.62%

## Oc1ccc(C=Cc2cc(O)cc(O)c2)cc1 [UM0118532, Resveratrol]
  percent gated cells (viability): 78.00%
  % increase CD34+ (%): 22.62%
  % increase CD34+ (cell counts): −14.19%
  % increase CD34+CD15− (cell counts): 12.57%
  % increase CD34+CD15− (%): 60.46%

## O=c1c(O)c(-c2ccccc2)oc2cc(O)cc(O)c12 [UM0119448, Galangine]
  % increase CD34+ (cell counts): −0.57%
  % increase CD34+CD15− (cell counts): 23.06%
  % increase CD34+CD15− (%): 60.64%

## 2′-beta-Dihydrochalcone [UM0120960]
  % increase CD34+ (%): 24.69%
  % increase CD34+ (cell counts): 8.21%
  % increase CD34+CD15− (cell counts): 41.99%
  % increase CD34+CD15− (%): 63.62%

## Verteporfin [UM0119121]
  % increase CD34+ (%): 15.38%
  % increase CD34+ (cell counts): 33.14%
  % increase CD34+CD15− (cell counts): 58.17%
  % increase CD34+CD15− (%): 37.29%

## CC(C)=CCc1c(O)cc2oc(C)cc(=O)c2c1O [UM0121217, Peucenin]
  percent gated cells (viability): 83.20%
  % increase CD34+ (%): 23.46%
  % increase CD34+ (cell counts): 37.27%
  % increase CD34+CD15− (cell counts): 94.61%
  % increase CD34+CD15− (%): 74.92%

## CC(C)=CCOc1cc2oc(=O)ccc2cc1O [UM0120947, Prenyletin]
  percent gated cells (viability): 81.10%
  % increase CD34+ (%): 18.10%
  % increase CD34+ (cell counts): 15.58%
  % increase CD34+CD15− (cell counts): 56.71%
  % increase CD34+CD15− (%): 60.33%

## CC(C)Oc1ccc2c(=O)c(-c3ccccc3)coc2c1 [UM0120559, Ipriflavone]
  % increase CD34+ (%): 27.34%
  % increase CD34+ (cell counts): 39.89%
  % increase CD34+CD15− (cell counts): 54.50%
  % increase CD34+CD15− (%): 40.47%

## O=c1c2ccccc2oc2ccc(O)cc12 [UM0121186, 2-Hydroxyxanthone]
  percent gated cells (viability): 82.40%
  % increase CD34+ (%): 48.93%
  % increase CD34+ (cell counts): 48.11%
  % increase CD34+CD15− (cell counts): 65.21%
  % increase CD34+CD15− (%): 66.25%

## COc1ccc(-c2cc(=O)c3ccc(O)cc3o2)cc1 [UM0117304, Pratol]
  percent gated cells (viability): 82.40%
  % increase CD34+ (%): 50.40%
  % increase CD34+ (cell counts): 31.59%
  % increase CD34+CD15− (cell counts): 47.36%
  % increase CD34+CD15− (%): 68.85%

## Oc1cc(O)cc(/C=C/c2ccccc2)c1 [UM0120964, Pinosylvin]
  percent gated cells (viability): 69.90%
  % increase CD34+ (%): 24.20%
  % increase CD34+ (cell counts): 8.62%
  % increase CD34+CD15− (cell counts): 39.69%
  % increase CD34+CD15− (%): 59.46%

## CCOC(=O)c1oc2c(OC)c(O)cc(O)c2c(=O)c1-c1cc(OC)c(OC)c(OC)c1 [UM0121233, 2-Ethoxycarbonyl-5,7-dihydroxy-8,3′,4′,5′-tetramethoxyisoflavone]
  percent gated cells (viability): 86.30%
  % increase CD34+ (%): 15.01%
  % increase CD34+ (cell counts): 18.21%
  % increase CD34+CD15− (cell counts): 50.24%
  % increase CD34+CD15− (%): 45.77%

## C[C@@H]1O[C@@H](O[C@H]2[C@H](Oc3cc(O)c4c(=O)c(O)c(-c5ccc(O)cc5)oc4c3)O[C@H](CO)[C@@H](O)[C@@H]2O)[C@H](O)[C@H](O)[C@H]1O [UM0119289, Kaempferol-7-Neohesperidoside]
  % increase CD34+ (%): 12.75%
  % increase CD34+ (cell counts): 29.49%
  % increase CD34+CD15− (cell counts): 72.47%
  % increase CD34+CD15− (%): 50.39%

## N[C@@H](Cc1c[nH]c2ccccc12)C(=O)O [Tryptophan]
  CD34+CD15− cell counts compared to DMSO: further reduced

## CCOC(=O)c1c(C)cc(O)c(C)c1O [UM0120789, Methylorsellinic acid ethyl ester]
  percent gated cells (viability): 84.00%
  % increase CD34+ (%): 22.49%
  % increase CD34+ (cell counts): 22.38%
  % increase CD34+CD15− (cell counts): 52.88%
  % increase CD34+CD15− (%): 52.70%

## Nc1ccccc1C(=O)CC(N)C(=O)O (stereo not drawn) [Kynurenine]
  CD34+CD15− cell counts compared to DMSO: further reduced

## CC(=O)Oc1ccc(-c2cc(=O)c3c(OC(C)=O)cc(OC(C)=O)cc3o2)cc1 [UM0121171, Apigenin triacetate]
  percent gated cells (viability): 80.10%
  % increase CD34+ (%): 48.36%
  % increase CD34+ (cell counts): 17.48%
  % increase CD34+CD15− (cell counts): 31.61%
  % increase CD34+CD15− (%): 66.25%

## COc1ccc2c(c1)[nH]c1c(C)nccc12.Cl [UM0118303, Harmine hydrochloride]
  percent gated cells (viability): 78.60%
  % increase CD34+ (%): 8.79%
  % increase CD34+ (cell counts): −17.08%
  % increase CD34+CD15− (cell counts): 38.52%
  % increase CD34+CD15− (%): 81.33%

## C[C@]12CCC(=O)C=C1CC[C@@H]1[C@@H]2CC[C@]2(C)C(=O)CC[C@@H]12 [UM0119559, 4-Androstene-3,17-dione]
  percent gated cells (viability): 82.30%
  % increase CD34+ (%): 1.57%
  % increase CD34+ (cell counts): −20.76%
  % increase CD34+CD15− (cell counts): 20.14%
  % increase CD34+CD15− (%): 53.81%

## COc1cc2c(cc1O)C[C@H]1c3c(cc(O)c(OC)c3-2)CCN1C [UM0118103, Boldine]
  percent gated cells (viability): 87.00%
  % increase CD34+ (%): −3.69%
  % increase CD34+ (cell counts): 10.21%
  % increase CD34+CD15− (cell counts): 50.97%
  % increase CD34+CD15− (%): 31.10%

## CO[C@@H]1[C@H](OC(=O)/C=C/C=C/C=C/C=C/C(=O)O)CC[C@]2(CO2)[C@H]1[C@@]1(C)O[C@@H]1CC=C(C)C [UM0121512, Fumagillin]
  percent gated cells (viability): 78.60%
  % increase CD34+ (%): 31.22%
  % increase CD34+ (cell counts): −54.59%
  % increase CD34+CD15− (cell counts): −46.09%
  % increase CD34+CD15− (%): 55.51%

## O=c1cc(-c2ccc(O)c(O)c2)oc2cc(O)cc(O)c12 [UM0118175, Luteolin]
  percent gated cells (viability): 79.80%
  % increase CD34+ (%): 40.48%
  % increase CD34+ (cell counts): 4.97%
  % increase CD34+CD15− (cell counts): 27.50%
  % increase CD34+CD15− (%): 70.76%

## NC(=Nc1ccccc1)NC(=O)c1nc(Cl)c(N)nc1N [UM0120143, Phenamil methanesulfonate]
  percent gated cells (viability): 84.10%
  % increase CD34+ (%): 30.88%
  % increase CD34+ (cell counts): 28.04%
  % increase CD34+CD15− (cell counts): 54.83%
  % increase CD34+CD15− (%): 58.21%

## COc1c(-c2ccccc2)oc2c(OC)cccc2c1=O [UM0121168, 3,8-Dimethoxyflavone]
  percent gated cells (viability): 80.80%
  % increase CD34+ (%): 29.05%
  % increase CD34+ (cell counts): 24.97%
  % increase CD34+CD15− (cell counts): 53.85%
  % increase CD34+CD15− (%): 58.96%

## COc1ccc(C2CC(=O)c3ccc(OC)cc3O2)cc1 (stereo not drawn) [UM0120851, Liquiritigenin dimethylether]
  percent gated cells (viability): 81.20%
  % increase CD34+ (%): 34.97%
  % increase CD34+ (cell counts): 31.66%
  % increase CD34+CD15− (cell counts): 59.21%
  % increase CD34+CD15− (%): 63.25%

## OC[C@@H]1CCCN2CCCC[C@H]12 [UM0119416, Lupinine]
  % increase CD34+ (%): 10.12%
  % increase CD34+ (cell counts): 30.63%
  % increase CD34+CD15− (cell counts): 51.77%
  % increase CD34+CD15− (%): 28.13%

## COc1cc(OC)c2c(=O)cc(-c3ccccc3)oc2c1 [UM0121173, 5,7-Dimethoxyflavone]
  percent gated cells (viability): 82.00%
  % increase CD34+ (%): 29.43%
  % increase CD34+ (cell counts): 34.90%
  % increase CD34+CD15− (cell counts): 53.11%
  % increase CD34+CD15− (%): 46.97%

## COc1cc(OC)c2c(=O)c(-c3ccc4c(c3)OCO4)coc2c1 [UM0121218, Derrustone]
  percent gated cells (viability): 83.90%
  % increase CD34+ (%): 21.91%
  % increase CD34+ (cell counts): 25.53%
  % increase CD34+CD15− (cell counts): 58.63%
  % increase CD34+CD15− (%): 53.68%

## N[C@@H]1C[C@H]1c1ccccc1.N[C@H]1C[C@@H]1c1ccccc1.O=S(=O)(O)O [UM0121497, Tranylcypromine sulfate]
  percent gated cells (viability): 76.50%
  % increase CD34+ (%): 20.22%
  % increase CD34+ (cell counts): −15.83%
  % increase CD34+CD15− (cell counts): 19.65%
  % increase CD34+CD15− (%): 70.66%

## COc1cc(-c2oc3cc(O)ccc3c(=O)c2O)ccc1O [UM0119468, Geraldol]
  percent gated cells (viability): 78.50%
  % increase CD34+ (%): 25.29%
  % increase CD34+ (cell counts): −41.47%
  % increase CD34+CD15− (cell counts): −23.14%
  % increase CD34+CD15− (%): 64.06%
